The record followed here is ChEMBL document CHEMBL6083280, “De Novo Discovery of a Noncovalent Cell-Penetrating Bicyclic Peptide Inhibitor Targeting SARS-CoV-2 Main Protease” (J Med Chem, 2024).

Data set [1] has as its system SARS-CoV-2. The data set is described as follows: Antiviral activity against SARS-CoV-2. To be noted: Severe acute respiratory syndrome coronavirus 2. In kind it is functional, organism-based.
Another data set has as its system Caco-2. The data set is described as follows: (§1) Cytotoxicity against human Caco-2 cells assessed as cell viability at 100 uM incubated for 48 hrs by CCK-8 assay. The class given is toxicity, cell-based. The conditions noted are these: caco-2, 48 h, 100 µM. Background: Tetrazolium dyes change colour on reduction, which living cells bring about.
Data set [2] has as its target Ubiquitin carboxyl-terminal hydrolase 14 (Homo sapiens) (UniProt P54578). Kind of data set: Inhibition of USP14 (unknown origin).
The nature of data set [3]: Metabolic stability in mouse serum assessed as half life by HPLC analysis. The class given is ADME, cell-free.
Data set [4] in a line: as §1. In kind it is toxicity, cell-based. The conditions noted are these: Caco-2 cells.
Data set [5] deals with SARS-CoV-2. The data set is described as follows: Antiviral activity against SARS-CoV-2 infected in human Caco-2 cells assessed as inhibition of viral infection preincubated for 1 hr followed by viral infection measured after 48 hrs by CQ1 confocal quantitative image cytometer analysis. The class given is functional, organism-based. The conditions noted are these: for EC50: Severe acute respiratory syndrome coronavirus 2, Caco-2.

The target in data set [6] is T1, Replicase polyprotein 1ab (Severe acute respiratory syndrome coronavirus 2, UniProt P0DTD1). The data set is described as follows: Binding affinity to N-terminal his-tagged SARS-CoV-2 Main protease expressed in Escherichia coli BL21 (DE3) assessed as dissociation constant by ITC analysis. For orientation: ITC needs no label: the signal is the heat of the interaction.

For data set [7], the target named is Cathepsin B (Homo sapiens) (UniProt P07858). Kind of data set: Inhibition of cathepsin B (unknown origin).
For data set [8], the target named is T1, Replicase polyprotein 1ab. Kind of data set: Inhibition of N-terminal his-tagged SARS-CoV-2 Main protease expressed in Escherichia coli BL21 (DE3) using Dabcyl-TSAVLWSGFRICMK-Edans as substrate preincubated for 10 mins by microplate reader analysis.
Data set [9] deals with SARS-CoV-2. Kind of data set: Antiviral activity against SARS-CoV-2 Omicron. In kind it is functional, organism-based. The conditions noted are these: Severe acute respiratory syndrome coronavirus 2, Omicron.
A short description of data set [10]: Drug uptake in human Caco-2 cells at 5 uM measured after 3 hrs by live confocal microscopic analysis. To be noted: caco-2, 3 h. The class given is ADME, cell-based.
Data set [11] in a line: Volume of distribution at steady state in male CD-1 mouse at 4 mg/kg, iv by LC-MS/MS analysis. In kind it is ADME, organism-based. To be noted: in vivo, read-out: Vdss.
Data set [12] is described as follows: Clearance in male CD-1 mouse at 4 mg/kg, iv by LC-MS/MS analysis. To be noted: in vivo. In kind it is ADME, organism-based.
A short description of data set [13]: AUC (0 to infinity) in male CD-1 mouse at 4 mg/kg, iv by LC-MS/MS analysis. In kind it is ADME, organism-based. To be noted: in vivo.
Data set [14] can be described thus: Drug uptake in human HeLa cells at 5 uM measured after 3 hrs by live confocal microscopic analysis. In kind it is ADME, cell-based.
Data set [15] in a line: Half life in male CD-1 mouse at 4 mg/kg, iv by LC-MS/MS analysis. To be noted: in vivo. The class given is ADME, organism-based.
The nature of data set [16]: Initial plasma concentration in male CD-1 mouse at 4 mg/kg, iv by LC-MS/MS analysis. The class given is ADME, organism-based.

Activity calls are given as the source filed them.

Ubiquitin carboxyl-terminal hydrolase 14 (Homo sapiens), sequence (P54578 whole entry): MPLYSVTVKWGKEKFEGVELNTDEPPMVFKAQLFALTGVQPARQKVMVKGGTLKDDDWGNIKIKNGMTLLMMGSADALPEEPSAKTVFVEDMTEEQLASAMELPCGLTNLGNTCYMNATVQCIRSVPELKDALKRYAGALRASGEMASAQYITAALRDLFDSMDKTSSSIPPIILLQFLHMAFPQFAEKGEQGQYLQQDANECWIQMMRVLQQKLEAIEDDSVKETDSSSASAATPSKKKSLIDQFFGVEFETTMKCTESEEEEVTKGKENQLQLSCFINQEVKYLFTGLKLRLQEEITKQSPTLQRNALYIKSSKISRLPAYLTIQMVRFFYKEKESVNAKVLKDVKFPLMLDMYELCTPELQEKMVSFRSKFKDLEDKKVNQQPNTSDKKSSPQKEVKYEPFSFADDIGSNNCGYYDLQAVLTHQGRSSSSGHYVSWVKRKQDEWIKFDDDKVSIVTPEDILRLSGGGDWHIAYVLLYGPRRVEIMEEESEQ

What is called EC50 is the midpoint of the concentration-response curve. Compound `Cc1cccc(C)c1OCC(=O)N[C@@H](Cc1ccccc1)[C@@H](O)C[C@H](Cc1ccccc1)NC(=O)[C@H](C(C)C)N1CCCNC1=O` [LOPINAVIR] had an EC50 in the data set with SARS-CoV-2 [1] of 8.75 µM. The Activity entry in the data set with Caco-2 is on record as “Toxic”.
For orientation: half-life means the time needed for the level to fall by half in the phase considered. By CC50 is commonly meant the concentration at which the toxic effect on the cells reaches its halfway point. The term Kd denotes the equilibrium constant for the complex coming apart. For orientation: IC50 means the midpoint of a concentration-inhibition curve. With `CC(C)C[C@@H]1NC(=O)[C@H](Cc2ccccc2)NC(=O)[C@@H]2CCCN2C(=O)[C@H]([C@@H](C)O)NC(=O)[C@H]([C@@H](C)O)NC(=O)[C@H]([C@@H](C)O)NC(=O)[C@H](Cc2c[nH]cn2)NC(=O)[C@H](Cc2ccccc2)NC(=O)[C@H]([C@@H](C)O)NC(=O)[C@H](C(C)C)NC(=O)[C@@H](Cc2ccc(O)cc2)NC(=O)CSC[C@@H](C(=O)NCC(N)=O)NC(=O)[C@@H]2CCCN2C(=O)[C@@H]2CCCN2C1=O`, the inhibition entry in [2] and in [7] was “Active” in each case. Also, the half-life in data set [3] is 5.4 h. Besides, the CC50 at 48 h in data set [4] is > 100 µM. Further, in the data set with SARS-CoV-2 [5], the EC50 was 10.8 µM. Moreover, the result in the data set with SARS-CoV-2 [5] (Severe acute respiratory syndrome coronavirus 2, time 49.0 hrs) was inactive. The Kd in data set [6] came out at 2.75 µM. The same compound registered an IC50 in [8] of 0.3 µM.
In turn, `Cn1cnc(Cn2c(=O)[nH]/c(=N\c3cc4cn(C)nc4cc3Cl)n(Cc3cc(F)c(F)cc3F)c2=O)n1` had an EC50 with SARS-CoV-2 [9] of 0.22 µM.
As usually defined, the clearance is a measure of how efficiently the substance is removed, as volume per time. The term AUC(0-inf) denotes total exposure, with the tail of the curve extrapolated. Turning to `CC(C)[C@@H]1NC(=O)[C@@H](Cc2ccc(O)cc2)NC(=O)CC[C@@H](C(N)=O)NC(=O)[C@@H]2CCCN2C(=O)[C@@H]2CCCN2C(=O)C2CSc3c(F)c(F)c(c(F)c3F)-c3c(F)c(F)c(c(F)c3F)SC[C@H](NC1=O)C(=O)N[C@@H](Cc1ccccc1)C(=O)N[C@@H](Cc1c[nH]cn1)C(=O)N[C@@H]([C@@H](C)O)C(=O)N[C@@H]([C@@H](C)O)C(=O)N[C@@H]([C@@H](C)O)C(=O)N1CCC[C@H]1C(=O)N[C@@H](Cc1ccccc1)C(=O)N2`, the half-life in data set [3] was 8 h; in [15] it was 0.499 h. In addition, the Drug uptake result in data set [10] and in data set [14] was “Active” in each case. Further, the Vd in data set [11] worked out at 0.511 L/kg. The compound further gave a clearance in [12] of 26.5 mL/min/kg. Also, the Activity result with Caco-2 is listed as “Non-toxic”. For the same compound, the EC50 in the data set with SARS-CoV-2 [5] was 8.62 µM. The AUC(0-inf) in [13] is 2530 ng·h/mL. Further, the C0 in data set [16] worked out at 12100 ng/mL. For the same compound, in [8], the IC50 is 4.51 µM.
